PubChem BioAssay (NCI)
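Tested at 5 concentrations; 48 h exposure; 96-well plates; endpoints linearly interpolated, else capped at highest concentration. Definition used: TGI = concentration required for complete inhibition of growth.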

Columns and labels:
Assay in all cases: inhibition of tumour cell growth, NCI panel, 48 h
MOLT-4 leukemia = tested on: MOLT-4 leukemia
LXFL 529 NSCLC = tested on: LXFL 529 NSCLC
DMS 273 small cell lung = tested on: DMS 273 small cell lung
DMS 114 small cell lung = tested on: DMS 114 small cell lung
HOP-18 NSCLC = tested on: HOP-18 NSCLC
XF 498 CNS = tested on: XF 498 CNS
KM20L2 colon = tested on: KM20L2 colon
DLD-1 colon = tested on: DLD-1 colon

Measured: TGI

C[C@H](CCC1SC1(C)C)C1CCC2(C)C3=C(CC[C@]12C)[C@@]1(C)CC[C@H](O)C(C)(C)C1CC3 (stereo partly drawn)
> 100 µM: all assays above
